Results: patent publication US20020119141A1, “Biochemical methods that eliminate corneal scars, opacification and haze” (priority 1999, published 2002)
Like-named read-outs stand apart in the source and are kept apart here.

System: eyes of rabbits
Excerpt: Fifty-two (52) healthy rabbits of the New Zealand Cross variety (26 male, 26 female) weighing 1.5 kg to 2.5 kg were individually marked for identification and were housed individually in suspended cages. The animals received a commercially available pelleted rabbit feed on a daily basis, with tap water available ad libitum.
The animals were divided into thirteen groups of 4 animals each (2 males, 2 femals). Two animals in each group (1 male, 1 female) were selected for pretreatment fundus photography and fluorescein angiography.
The fundus photography was performed by restraining the animals and visualizing the optic nerve, retinal arcades and fundus with a KOWA® RC-3 Fundus Camera loaded with Kodak Gold 200 ASA film.
The fluorescein angiography involved a 1.5-ml injection of 2% sterile fluorescein solution via the marginal ear vein. Approximately 30 seconds post-injection the fluorescein was visualized upon localization of the optic nerve, retinal vessels and fundus.
The following day, each animal was anesthetized by intravenous administration of a combination of 34 mg/kg of ketamine hydrochloride and 5-mg/kg xylazine. The eyelids were retracted using a lid speculum, and the eyes were disinfected with an iodine-povidone wash.
The experimental treatments administered to each animal group were as follows:
The day following the injections (Day 1) the 26 animals, which were subjected to the fundus photography and fluorescein angiography, were observed using the same methods as for the pre-dose examination.
The eyes were then surgically removed and placed in a fixture solution of 2.5% glutaraldehyde with 0.1M phosphate buffered saline at pH 7.37. Alternatively, one randomly selected rabbit was euthanized by pentobarbital injection but then fixed by intracardiac injection of the gluteraldehyde solution into the left ventricle to determine the effect of the fixation procedure on the histology findings within the enucleated eyes.
On Day 7, the 13 female rabbits that had been previously photographed and angiography performed were subjected to same observations following the methods previously described.
The remaining 26 animals were euthanized as described above 7 days after dosing. The eyes were fixed in the same manner as those, which had been fixed on day 2. Also, one randomly selected rabbit was subjected to the same intracardiac gluteraldehyde fixation procedure described hereabove for the previously randomly selected animal.
The eyes of the animals treated in this example were examined grossly and microscopically for evidence of treatment-related toxicities.

Thimerosal [BSS + Thimerisol] was tested, and the “treatment-related toxicity of the eyes (gross and microscopic examination)” value (from here on “treatment-related toxicity of the eyes”) (0.0075 mg thimerosal in BSS, day 2) was “free of toxicity”, the “treatment-related toxicity of the eyes” value (0.0075 mg thimerosal in BSS, day 7, listed as BSS plus thimerosal) was “significant toxic effects” and the “treatment-related toxicity of the eyes” value (0.0075 mg thimerosal in BSS, day 7, listed as BSS+thimerosal) was “breakdown of the blood retinal barrier”. For the same substance, the “treatment-related toxicity of the eyes” value (0.025 mg thimerosal in BSS, day 2 and 7 post dose) was “severe treatment-related toxic effects” and the “toxic effects in the eyes of rabbits (conclusion)” value (intravitreal injection, at the dosages tested) was “do cause toxic effects”.
